According to patent US20130165635A1 (priority 2010, published 2013):
Numbered stars: 1 amine (or outer) side, 2 acyl side, 3 side chain; on linkers, the order of the positions; unused ones are H or OH. Bridge positions count the residues as written; N and C are the ends. Square brackets hold non-standard residues; d marks the D form. Peptide text beside a SMILES is read from it. X1 = CC(C)CCCCCCCCC[C@H](CC(=O)[*:1])O[*:2]

Test system: Trichophyton mentagrophytes
Assay type: cell-based

CC(C)CCCCCCCCC[C@@H]1CC(=O)N[C@@H](CCC(=O)O)C(=O)N[C@@H](CC(C)C)C(=O)N[C@H](CC(C)C)C(=O)N[C@@H](C(C)C)C(=O)N[C@@H](CC(=O)O)C(=O)N[C@H](CC(C)C)C(=O)N[C@@H](CC(C)C)C(=O)O1 [surfactin] (EL[dL]VD[dL]L; linker N-C via X1) was tested, and the “antifungal activity (growth inhibition of test microorganism)” value was “weaker than iturin A, but slight inhibitory activities”.
